Measurements from article PMC3992874 (Journal of nuclear medicine : official publication, Society …, 2013).

Key:
VCAM-1 = conditions: previous work; cited from earlier work
[1] = patients; cited from earlier work
[2] = tested on: VCAM-1 expression, SKOV3ip1 (platinum resistant) tumors; type: in vivo, mouse; conditions: SKOV3ip1 mice, single IP 25 mg/kg; 111In-tVCAM-4 omentum biodistribution; n=3
LP9 mesothelial cells = test: Viability of carboplatin-treated LP9 mesothelial cells; type: cell-based, human; conditions: increasing concentrations up to 1 μg/ml, 24 hours, data not shown

Compound | affinity for VCAM-1 (VCAM-1) | injected dose excreted within 24 hours [1] | VCAM-1 expression above baseline 2 days after treatment [2] [%] | effect on cell viability (LP9 mesothelial cells)
(βAKTLLPTPGGS(PEG5000))KKKDOTAβA-NH2 [tVCAM-4] | high affinity | – | – | –
N.N.O=C([O-])C1(C(=O)[O-])CCC1.[Pt+2] [carboplatin] | – | up to 80% | 50 | None of the concentrations tested altered
